Measurements from patent US5817640A (Gensia Pharmaceuticals, priority 1995, dated 1998).
Entries after “also recorded” stand apart in the source; their conditions may differ.

Experiments:
Assay type in all cases: in vivo, human
[1] = tested on: patients undergoing coronary artery bypass graft (CABG) surgery; test: Difficulty in weaning from cardiopulmonary bypass (Phase 2); conditions: for Weaning time (cross-clamp removal to termination of bypass): in min (unit assumed); for Weaning difficulty: balloon pump, number of patients / Weaning difficulty: return to bypass, number of patients: placebo 1, p=0.6; for Weaning difficulty: pacemaker, number of patients: placebo 2; for Weaning difficulty: pacemaker, number of patients / Weaning difficulty: other, number of patients / Weaning difficulty: other / Weaning difficulty: pacemaker: p=0.7; for Weaning difficulty: other, number of patients: placebo 5; for Weaning difficulty: vasopressors, number of patients / Weaning difficulty: vasopressors: p=0.19; for Patients with any difficulty weaning, number: placebo 13; for Weaning difficulty: other / Weaning difficulty: pacemaker: placebo […]
Description: During surgery, anesthesia was maintained by continuous infusion of fentanyl and midazolam. Routine clinical parameters were recorded using standard operating room monitoring equipment. Continuous 2-lead Holter ECG and TEE data were recorded. Standard surgical procedures (e.g., aorta cross-clamping, crystalloid cardioplegia, cardio-pulmonary bypass, hypothermia) were used. Anastomoses were constructed, aorta cross-clamp removed and patients were discontinued from bypass when body temperature was 37° C. The quality of anastomosis was judged by the surgeon. Difficulty in weaning from bypass was judged by need for one or more of the following: pacemaker, return to bypass, balloon pump or vasopressor administration. Hemodynamic measurements, including heart rate, arterial blood pressure, pulmonary capillary wedge pressure and cardiac output, were recorded before sternotomy, 15 and 30 min after bypass and upon chest closure. Radial artery and pulmonary artery pressures, myocardial and whole body temperature, O2 saturation, end-tidal CO2 and arterial blood gases were measured, and ECG recordings were obtained as clinically indicated. Hemodynamic variables (blood pressure, heart rate, pulmonary capillary wedge pressure) were controlled within 20% of baseline using prescribed regimens.
The incidence of adverse clinical outcomes, such as cardiac death (death of patient attributable to primarily cardiac causes, non-fatal transmural MI (as measured by the appearance of a new Q-wave on 12-lead ECG plus a CK-MB value of ≥50 units), non-transmural MI (CK-MB value of ≥50 units), congestive heart failure (low cardiac output requiring intra-aortic balloon pump or left ventricular assist device) or life-threatening dysrhythmia (ventricular fibrillation, or ventricular tachycardia requiring cardioversion or drug treatment) was compared between the placebo and treatment groups. For the diagnosis of myocardial infarction, ECG tracings and CK-MB values were assessed centrally by observers blinded to treatment. The difficulty of weaning the patient from bypass, if any, was compared between placebo and treatment groups by noting need for one or more of the following: pacemaker, return to bypass, balloon pump or use of vasopressors.
8. Difficulty in Weaning. Patients were considered to have difficulty in weaning if they needed one or more of the following interventions: pacemaker, return to bypass, balloon pump or use of vasopressors. The number of patients receiving each of the above interventions was analyzed using a X^2 and Fisher's exact test, as was the number of patients classified as having difficulty in weaning. In addition, the time to weaning (defined as time from cross-clamp removal to end of bypass) in the patients experiencing difficulty were compared by a 1-way analysis of variance.
As noted, patients were determined as being difficult to remove from cardiopulmonary bypass if they required one or more of the following interventions: insertion of a pacemaker, return to bypass, use of a balloon pump or administration of vasopressors, or another intervention which the investigation determines is indicative of difficulty in weaning. […] When a combination of the high and low dose groups were compared to placebo (Table 9b), the reduced need for vasopressor support approached statistical significance (p=0.08). […] There were no differences in any of the weaning difficulty parameters discussed above between the high and low dose groups (Table 9c).

[2] = tested on: patients undergoing coronary artery bypass graft (CABG) surgery; test: Incidence of clinical outcomes, Phase 3 CABG trial; conditions: for Incidence of myocardial infarction (ECG and CK-MB): placebo 4.7%; for Myocardial infarction (ECG and CK-MB), number of patients: placebo 10 of 211; for Cardiac death, number of patients: placebo 3 of 212; for Incidence of congestive heart failure: placebo 3.8%; for Life-threatening dysrhythmia, number of patients: placebo 4 of 212; for Incidence of cerebrovascular accident: placebo 4.2%; for Congestive heart failure, number of patients: placebo 8 of 212; for Cerebrovascular accident, number of patients: placebo 9 of 212; for Combined clinical outcomes, number of patients: placebo 29 of 212; for Incidence of cardiac death / Incidence of life-threatening dysrhythmia / Incidence of combined clinical outcomes: placebo […]
[3] = tested on: patients undergoing coronary artery bypass graft (CABG) surgery; test: Incidence of MI and combined clinical outcome by plasma level of AICA riboside, Phase 3
Text: The data in Table 13 reflect diagnosis of MI by both ECG and CK-MB (as described above with respect to Table 12).

[4] = high dose 0.1 mg/kg/min, n=203, p<0.05
[5] = high dose 0.1 mg/kg/min, n=207, NS
[6] = high dose 0.1 mg/kg/min, n=207, p<0.05
[7] = AICA riboside plasma level <0.25 μg/ml, n=209
[8] = AICA riboside plasma level <0.25 μg/ml, n=211
[9] = plasma level 0.25-2.00 μg/ml, n=83
[10] = plasma level 0.25-2.00 μg/ml, n=89
[11] = plasma level 2.00-3.00 μg/ml, n=114
[12] = plasma level 2.00-3.00 μg/ml, n=116
[13] = plasma level 3.00-4.00 μg/ml, n=44
[14] = plasma level 4.00-5.00 μg/ml, n=61
[15] = plasma level 5.00-6.00 μg/ml, n=49
[16] = plasma level 5.00-6.00 μg/ml, n=50

## NC(=O)c1ncn([C@@H]2O[C@H](CO)[C@@H](O)[C@H]2O)c1N [AICA riboside, 5-amino-1-β-D-ribofuranosyl-imidazole-4-carboxamide]
[1]; 0.05 mg/kg/min, n=41, all patients, placebo 23 +/- 2.9
  Weaning time (cross-clamp removal to termination of bypass): 20 +/- 2.2
[1]; 0.05 mg/kg/min, n=41
  Weaning difficulty: balloon pump, number of patients: 0 patients
  Weaning difficulty: return to bypass, number of patients: 0 patients
  Weaning difficulty: pacemaker, number of patients: 4 patients
  Weaning difficulty: other, number of patients: 3 patients
  Weaning difficulty: other: 7.3%
  Weaning difficulty: pacemaker: 9.8%
[1]; 0.05 mg/kg/min, n=41, placebo 8
  Weaning difficulty: vasopressors, number of patients: 3 patients
[1]; 0.05 mg/kg/min, n=41, p=0.17
  Patients with any difficulty weaning, number: 7 patients
[1]; 0.05 mg/kg/min, n=41, placebo 21.6%
  Weaning difficulty: vasopressors: 7.3%
[1]; 0.05 mg/kg/min, n=41, placebo 35%, p=0.17
  Patients with any difficulty weaning: 17%
[1]; 0.05 mg/kg/min, patients with difficulty, placebo 31.8 +/- 6.3
  Weaning time (cross-clamp removal to termination of bypass): 20 +/- 4.6
[1]; 0.1 mg/kg/min, n=34, all patients, placebo 23 +/- 2.9
  Weaning time (cross-clamp removal to termination of bypass): 17 +/- 1.8
[1]; 0.10 mg/kg/min, n=35
  Weaning difficulty: balloon pump, number of patients: 0 patients
  Weaning difficulty: return to bypass, number of patients: 0 patients
  Weaning difficulty: pacemaker, number of patients: 4 patients
  Weaning difficulty: other, number of patients: 4 patients
  Weaning difficulty: other: 11.4%
  Weaning difficulty: pacemaker: 11.4%
[1]; 0.10 mg/kg/min, n=35, placebo 8
  Weaning difficulty: vasopressors, number of patients: 4 patients
[1]; 0.10 mg/kg/min, n=35, p=0.17
  Patients with any difficulty weaning, number: 8 patients
[1]; 0.10 mg/kg/min, n=35, placebo 21.6%
  Weaning difficulty: vasopressors: 11.4%
[1]; 0.10 mg/kg/min, n=35, placebo 35%, p=0.17
  Patients with any difficulty weaning: 23%
[1]; 0.1 mg/kg/min, patients with difficulty, placebo 31.8 +/- 6.3
  Weaning time (cross-clamp removal to termination of bypass): 20.8 +/- 4.2
[1]; 0.05 + 0.10 mg/kg/min combined, n=76, p=0.06
  Patients with any difficulty weaning, number: 15 patients
[1]; 0.05 + 0.10 mg/kg/min combined, n=76, placebo 35.1%, p=0.06
  Patients with any difficulty weaning: 19.7%
[1]; 0.05 + 0.10 mg/kg/min combined, placebo 8, p=0.08
  Vasopressors required, number of patients: 7 patients
[1]; 0.05 + 0.10 mg/kg/min combined, placebo 21.6%, p=0.08
  Vasopressors required: 9.2%
[1]; low and high dose groups, p=0.19 separately, p=0.08 combined
  Need for vasopressor support vs placebo: strong trend towards a reduced need for vasopressor support; also recorded: less likely to receive vasopressor assistance
[1]; p=0.17 when compared separately, p=0.06 combined dose groups
  Weaning difficulty vs placebo: towards a reduction in weaning difficulty in the drug treated groups
[2]; [4]
  Incidence of myocardial infarction (ECG and CK-MB): 1.5%
  Myocardial infarction (ECG and CK-MB), number of patients: 3 patients
[2]; [5]
  Cardiac death, number of patients: 0 patients
  Incidence of congestive heart failure: 2.9%
  Life-threatening dysrhythmia, number of patients: 3 patients
  Congestive heart failure, number of patients: 6 patients
  Incidence of cardiac death: 0%
  Incidence of life-threatening dysrhythmia: 1.4%
[2]; [6]
  Incidence of cerebrovascular accident: 0.5%
  Cerebrovascular accident, number of patients: 1 patients
  Combined clinical outcomes, number of patients: 11 patients
  Incidence of combined clinical outcomes: 5.3%
[2]; high dose, p<0.05
  Decrease in incidence of MI vs placebo: 68%
  Decrease in incidence of cerebrovascular accident vs placebo: 88%
  Reduction in incidence of combined outcomes vs placebo: 61%
[2]; high dose, placebo 3.3%
  Incidence of all deaths: 0.5%
[2]; high dose, placebo 24.1%
  Incidence of myocardial infarction determined by either ECG or CK-MB: 20.8%
[2]; low dose 0.05 mg/kg/min vs placebo
  Combined outcome efficacy of low dose: no statistically significant efficacy
[2]; low dose 0.05 mg/kg/min, n=205
  Incidence of myocardial infarction (ECG and CK-MB): 4.4%
  Myocardial infarction (ECG and CK-MB), number of patients: 9 patients
[2]; low dose 0.05 mg/kg/min, n=214
  Cardiac death, number of patients: 5 patients
  Incidence of congestive heart failure: 2.8%
  Life-threatening dysrhythmia, number of patients: 9 patients
  Incidence of cerebrovascular accident: 0.9%
  Congestive heart failure, number of patients: 6 patients
  Cerebrovascular accident, number of patients: 2 patients
  Combined clinical outcomes, number of patients: 23 patients
  Incidence of cardiac death: 2.3%
  Incidence of combined clinical outcomes: 10.7%
  Incidence of life-threatening dysrhythmia: 4.2%
[3]; [7]
  Incidence of myocardial infarction: 4.3%
  Myocardial infarction, number of patients: 9 patients
[3]; [8]
  Combined clinical outcome, number of patients: 29 patients
  Incidence of combined clinical outcome: 13.7%
[3]; from Table 13
  Most effective plasma level of AICA riboside: 3 to 6 µg/mL
[3]; [9]
  Incidence of myocardial infarction: 2.4%
  Myocardial infarction, number of patients: 2 patients
[3]; [10]
  Combined clinical outcome, number of patients: 9 patients
  Incidence of combined clinical outcome: 10.1%
[3]; [11]
  Incidence of myocardial infarction: 4.4%
  Myocardial infarction, number of patients: 5 patients
[3]; [12]
  Combined clinical outcome, number of patients: 11 patients
  Incidence of combined clinical outcome: 9.5%
[3]; [13]
  Combined clinical outcome, number of patients: 3 patients
  Incidence of combined clinical outcome: 6.8%
  Incidence of myocardial infarction: 2.3%
  Myocardial infarction, number of patients: 1 patients
[3]; [14]
  Combined clinical outcome, number of patients: 2 patients
  Incidence of combined clinical outcome: 3.3%
  Myocardial infarction, number of patients: 0 patients
[3]; [15]
  Incidence of myocardial infarction: 4.1%
  Myocardial infarction, number of patients: 2 patients
[3]; [16]
  Combined clinical outcome, number of patients: 3 patients
  Incidence of combined clinical outcome: 6.0%
[3]; plasma level >6.00 μg/ml, n=44
  Incidence of myocardial infarction: 2.3%
  Myocardial infarction, number of patients: 1 patients
[3]; plasma level >6.00 μg/ml, n=46
  Combined clinical outcome, number of patients: 4 patients
  Incidence of combined clinical outcome: 8.7%
